According to ChEMBL document CHEMBL1135385, “New highly active taxoids from 9beta-dihydrobaccatin-9,10-acetals. Part 2” (Bioorg Med Chem Lett, 2002):
Values after ≈ are worked out from the molar mass of the structure shown.

Columns and labels:
PC-6 [1] = test: Concentration required to obtain half of the maximal inhibition for cell growth in vincristine-resistant cell line expressing P-glycoprotein (PC-6/VCR29-9) was determined by using MTT assay when the cells were exposed to compound for 72 hr; type: functional; conditions: Homo sapiens, PC-6, 72 h
PC-6 [2] = test: Concentration required to obtain half of the maximal inhibition for cell growth in human small cell lung cancer(PC-6) was determined by using MTT assay when the cells were exposed to compound for 72 hr; type: functional; conditions: PC-6, Lung
PC-12 = test: Concentration required to obtain half of the maximal inhibition for cell growth in human non-small cell lung cancer cell line(PC-12) was determined by using MTT assay when the cells were exposed to compound for 72 hr; conditions: PC-12, Lung
[3] = Solubility (JP2 at pH 6.8); type: physicochemical; conditions: JP2, pH 6.8
[4] = Solubility (JP1 at pH 1.2); type: physicochemical; conditions: JP1, pH 1.2

GI50 (PC-12) [ng/mL] | solubility [3] [µg/mL] | solubility [4] [µg/mL] | SMILES | GI50 (PC-6 [1]) [ng/mL] | GI50 (PC-6 [2]) [ng/mL]
0.038 (≈ 0.0455 nM) |  |  | CC(=O)O[C@@]12CO[C@@H]1CC[C@@]1(C)[C@@H]3OC(C)(C)O[C@@H]3C3=C(C)[C@@H](OC(=O)[C@H](O)[C@@H](NC(=O)OC(C)(C)C)c4ccncc4)C[C@@](O)([C@@H](OC(=O)c4ccccc4)[C@@H]12)C3(C)C | 3.84 (≈ 4.6 nM) | 0.386 (≈ 0.462 nM)
0.665 (≈ 0.781 nM) | 57 (≈ 67000 nM) | 333 (≈ 391000 nM) | CC(=O)O[C@@]12CO[C@@H]1C[C@H](O)[C@@]1(C)[C@@H]3OC(C)(C)O[C@@H]3C3=C(C)[C@@H](OC(=O)[C@H](O)[C@@H](NC(=O)OC(C)(C)C)c4ccncc4)C[C@@](O)([C@@H](OC(=O)c4ccccc4)[C@H]21)C3(C)C | 13.5 (≈ 15.9 nM) | 0.38 (≈ 0.447 nM)
0.116 (≈ 0.139 nM) |  |  | CC(=O)O[C@@]12CO[C@@H]1CC[C@@]1(C)[C@@H]3OC(C)(C)O[C@@H]3C3=C(C)[C@@H](OC(=O)[C@H](O)[C@@H](NC(=O)OC(C)(C)C)c4ccccn4)C[C@@](O)([C@@H](OC(=O)c4ccccc4)[C@@H]12)C3(C)C | 0.538 (≈ 0.644 nM) | 0.145 (≈ 0.174 nM)
2.26 (≈ 2.61 nM) |  |  | CO[C@H]1C[C@H]2OC[C@@]2(OC(C)=O)[C@H]2[C@H](OC(=O)c3ccccc3)[C@]3(O)C[C@H](OC(=O)[C@H](O)[C@@H](NC(=O)OC(C)(C)C)c4ccncc4)C(C)=C([C@H]4OC(C)(C)O[C@H]4[C@]12C)C3(C)C | 38.1 (≈ 44 nM) | 0.229 (≈ 0.265 nM)
33.7 (≈ 40.5 nM) |  |  | CC(=O)O[C@@]12CO[C@@H]1C[C@@H]1C[C@@]13[C@@H]1OC(C)(C)O[C@@H]1C1=C(C)[C@@H](OC(=O)[C@H](O)[C@@H](NC(=O)OC(C)(C)C)c4ccncc4)C[C@@](O)([C@@H](OC(=O)c4ccccc4)[C@H]23)C1(C)C | > 100 | 7.03 (≈ 8.44 nM)
0.151 (≈ 0.181 nM) |  |  | CC(=O)O[C@@]12CO[C@@H]1CC[C@@]1(C)[C@@H]3OC(C)(C)O[C@@H]3C3=C(C)[C@@H](OC(=O)[C@H](O)[C@@H](NC(=O)OC(C)(C)C)c4ccccc4)C[C@@](O)([C@@H](OC(=O)c4ccccc4)[C@@H]12)C3(C)C | 2.91 (≈ 3.49 nM) | 0.332 (≈ 0.398 nM)
0.13 (≈ 0.152 nM) |  |  | CC(=O)O[C@@]12CO[C@@H]1C[C@@H](F)[C@@]1(C)[C@@H]3OC(C)(C)O[C@@H]3C3=C(C)[C@@H](OC(=O)[C@H](O)[C@@H](NC(=O)OC(C)(C)C)c4ccncc4)C[C@@](O)([C@@H](OC(=O)c4ccccc4)[C@H]21)C3(C)C | 3.87 (≈ 4.54 nM) | 0.266 (≈ 0.312 nM)
42.2 | < 4 | < 4 | CC(=O)O[C@@]12CO[C@@H]1C[C@H](O)[C@@]1(C)C(=O)[C@H](O)C3=C(C)[C@@H](OC(=O)[C@H](O)[C@@H](NC(=O)OC(C)(C)C)c4ccccc4)C[C@@](O)([C@@H](OC(=O)c4ccccc4)[C@H]21)C3(C)C.O.O.O [DOCETAXEL] | 135 | 1.48
 | < 4 | < 4 | CC(=O)O[C@H]1C(=O)[C@@]2(C)[C@H]([C@H](OC(=O)c3ccccc3)[C@]3(O)C[C@H](OC(=O)[C@H](O)[C@@H](NC(=O)c4ccccc4)c4ccccc4)C(C)=C1C3(C)C)[C@]1(OC(C)=O)CO[C@@H]1C[C@@H]2O [PACLITAXEL] |  | 
